Test results reported in patent US20260217712A1, “SOLID STATE FORMS OF MNK INHIBITORS” (4E Therapeutics, Inc., priority 2023, published 2026).
Like-named read-outs stand apart in the source and are kept apart here.

Legend:
Assay type in all cases: physicochemical
[1] = Gravimetric vapor sorption (GVS) and XRPD post-GVS; settings: for GVS reversible water uptake 0-90% RH: 25° C.; for Post GVS XRPD form: after double cycle GVS
Procedure: Sorption isotherms were obtained using a SMS DVS Intrinsic moisture sorption analyzer, controlled by DVS Intrinsic Control software. The sample temperature was maintained at 25° C. by the instrument controls. The humidity was controlled by mixing streams of dry and wet nitrogen, with a total flow rate of 200 mL/min. The relative humidity was measured by a calibrated Rotronic probe (dynamic range of 1.0-100% RH), located near the sample. The weight change, (mass relaxation) of the sample as a function of % RH was constantly monitored by a microbalance (accuracy±0.005 mg).
(§1) Typically, 5-30 mg of sample was placed in a tared mesh stainless steel basket under ambient conditions. The sample was loaded and unloaded at 40% RH and 25° C. (typical room conditions). A moisture sorption isotherm was performed as outlined below (2 scans per complete cycle). The standard isotherm was performed at 25° C. at 10% RH intervals over a 0-90% RH range. Typically, a double cycle (4 scans) was carried out. Data analysis was carried out within Microsoft Excel using the DVS Analysis Suite.
Sorption isotherms were obtained using a Hiden IGASorp moisture sorption analyser, controlled by Isochema HISorp software. The sample temperature was maintained at 25° C. by a Grant LT ecocool 150 re-circulating water bath. The humidity was controlled by mixing streams of dry and wet nitrogen, with a total flow rate of 250 ml·min-1. The relative humidity was measured by a calibrated Vaisala RH probe (dynamic range of 0-95% RH), located near the sample. The weight change, (mass relaxation) of the sample as a function of % RH was constantly monitored by the microbalance (accuracy±0.001 mg).
as §1, with “Typically, 20-30” for “Typically, 5-30”, “scans giving 1” for “scans per”, “within the Isochema HISorp 2019 software and exported into” for “within”, “Excel to present accordingly.” for “Excel using the DVS Analysis Suite.”

[2] = Static storage at 40° C./75% RH, XRPD and HPLC post storage; settings: for stability to storage at 40° C./75% RH (in words): 40° C./75% RH (elevated temperature and humidity); for HPLC purity post storage at 40° C./75% RH: 7 days
Outline: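 Solids isolated as counter-ion salts of the compound were stored statically at 40° C./75% RH and then re-examined by XRPD for solid-form changes. Chemical purity after storage was checked on an Agilent HP1100/Infinity II 1260 series HPLC system fitted with a diode array detector and running OpenLAB software.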

[3] = Thermodynamic solubility in simulated media and buffers; settings: listed as Structure (I) Pattern 3

SMILES: Cc1cc(Nc2cc(N)ncn2)c(=O)n2c1C(=O)NC21CCC2(CC2)CC1 [Pattern 3]
- hygroscopicity (in words) [1]: hygroscopic
- GVS reversible water uptake 0-90% RH [1]: 8.4 wt %
- GVS reversible water uptake 0-90% RH ([1]; listed as Lot B Sample 1): 8.4 wt % reversible water uptake
- GVS uptake 80-90% RH ([1]; 80-90% RH): 6.3 wt % uptake 80-90% RH
- Post GVS XRPD form [1]: the solid form was retained
- Post GVS XRPD form ([1]; listed as Lot B Sample 1): Post GVS XRPD: No change in form
- hygroscopicity (in words) ([1]; listed as Lot B): hygroscopic
- hygroscopicity (in words) ([1]; listed as Lot B Sample 1): Material is hygroscopic
- stability to storage at 40° C./75% RH (in words) [2]: good stability to storage
- stability to storage at 40° C./75% RH (in words) ([2]; listed as Lot B): remained unchanged
- HPLC purity post storage at 40° C./75% RH ([2]; 40° C./75% RH, listed as 9-5): 98.5%
- HPLC purity post storage at 40° C./75% RH ([2]; 40° C./75% RH, listed as Lot B Sample 1): 98.8%
- change of chemical purity on storage at 40° C./75% RH (in words) ([2]; 40° C./75% RH, listed as 9-5): small decrease in chemical purity
- solubility in simulated fluids and buffers (in words) [3]: poor
